In US8114895B2, “Use of bipyridine compound ‘Caerulomycin A’ derivatives and analogs thereof as immunosuppressive agents” (Council of Science and Industrial Research, priority 2005, dated 2012):

Columns and labels:
[1] = tested on: Splenocytes of BALB/c mice; assay: Proliferation of splenocytes stimulated with T cell and B cell mitogens (ConA, LPS); type: cell-based
Protocol: Splenocytes of BALB/c mice were cultured (5×10^4 cells/well) in 200 μl RPMI/FCS-10% medium and stimulated with different concentrations of either ConA (1 μg/ml and 2 μg/ml) or LPS (5 μg/ml and 10 μg/ml) and Caerulomycin A (0.0003-0.1 μg/ml). The control cultures consisting of splenocytes incubated with medium alone, ConA and DMSO. After 48 h, the cultures were pulsed with 0.5 μCi of [^3H]-thymidine and harvested 14 h later by automatic cell harvester (Skatron, Tranby, Norway). Radioactivity incorporated was measured by liquid scintillation counting and data are expressed as mean counts per minute (cpm).
Examples establishing the role of Caerulomycin A [isolated from a novel species of Actinoalloteichus] in inducing immunosuppression based on the following: • Splenocytes of BALB/c mice were stimulated with either ConA (1 μg/ml and 2 μg/ml) or LPS (5 μg/ml and 10 μg/ml) and were cultured with different concentrations of Caerulomycin A (0.0003-0.1 μg/ml). After 48 h, the cultures were pulsed with 0.5 μCi of [^3H]-thymidine and harvested 14 h later by automatic cell harvester. Radioactivity incorporated was measured by liquid scintillation counting. • Antigen ovalbumin (100 μg/ml) emulsified in Freund's complete adjuvant was injected in a group consisting of 5 BALB/c mice. […] Radioactivity incorporated was measured by liquid scintillation. The culture supernatants were collected after 48 h and cytokines were measured by ELISA. • Immunosuppressive effect of different doses of Caerulomycin A was monitored on naïve CD4^+ T cells, antigen reactive CD4^+ T cells, Th2 clone and Th1 hybridoma. […] Radioactivity incorporated was measured by liquid scintillation. • Immunosuppressive effect of Caerulomycin A on MLR reaction. […] After 4 days, the cultures were pulsed with 1 μCi of [^3H]-thymidine and harvested 16 h later and radioactivity incorporated was measured by liquid scintillation counting. • In vivo immunosuppressive effect of Caerulomycin A on the proliferation of T cells. […] CD28 and CTLA-4 expression was detected by flowcytometry on the surface of resting and ConA activated CD4^+ T cells. […]

antigen specific T cells = assay: In vivo proliferation of antigen specific T cells (OVA-primed mice injected with drug, splenocytes cultured ex vivo); set-up: species or system BALB/c mice; settings: for proliferation of cells from antigen-primed animals injected with drug versus animals not administered drug: 25-100 μg/mice/day i.p. for 7 days
Protocol: FIG. 1: Different groups, each comprising five animals were immunized with OVA, followed by CaeA administration daily for 7 days before mice were sacrificed. Splenocytes (2×10^5 cells/well) were isolated and cultured in vitro with 100 μg/ml OVA and varied doses of CaeA. After 72 h, [^3H]-thymidine was added, and its incorporation was measured 16 h later.
FIG. 2: In another set of experiment, three different groups were immunized with OVA followed by administration of CaeA (25 μg/mice) in one of the group and Alcohol (vehicle control) in another group, daily for 7 days before mice were sacrificed. Splenocytes (2×10^5 cells/well) were isolated and cultured in vitro alone or with OVA 100 and 200 μg/ml (1.2). Each point represents the mean±SEM of triplicate determinations from one of the three representative experiments.
OVA (2 mg/ml) was dissolved in PBS (0.01 M, pH 7.2) and emulsified in Freund's complete adjuvant (FCA). Emulsion (100 μl) was then injected intraperitoneally (i.p.) in 7 groups, comprising 5 BALB/c mice in each set. Four groups of animals were injected intraperitoneally daily with Caerulomycin A (25, 50, 75, 100 μg/100 μl/mice). The control groups were immunized intraperitoneally with 100 μl each of PBS and ethanol-PBS. After seven days, mice were sacrificed and splenocytes were isolated and pooled for in vitro proliferation.
Ovalbumin (3 mg/ml) was dissolved in PBS (pH 7.2) and emulsified in Freund's complete adjuvant (FCA). Emulsion (100 μl) was then injected intraperitoneally (i.p.) in different groups, comprising 5 BALB/c mice in each set. Four groups of animals were injected intraperitoneally daily with caerulomycin A (25, 50, 75, 100 μg/100 μl/mice). The control groups were immunized intraperitoneally with ethanol-PBS.
After seven days, mice were sacrificed and splenocytes were pooled and used for proliferation assays. Splenocytes (2×10^5 cells/well) were cultured with OVA (100 μg/ml) in 200 μl RPMI/FCS-10% medium and with various concentrations of caerulomycin A (0.1-0.0003 μg/ml). The control cultures consisting of splenocytes incubated with different concentrations of caerulomycin A (no OVA), OVA and medium were also kept. After 72 h, the cultures were pulsed with 1 μCi of [^3H]-thymidine and harvested 14 h later. Radioactivity incorporated was measured by liquid scintillation counting and data are expressed as mean counts per minute (cpm).
The mice were administered with different doses of caerulomycin A for 7 days (FIG. 1). The animals were sacrificed and splenocytes were cultured in vitro with antigen and different concentrations of caerulomycin A (0.00625-0.10 μg/ml).

B cells = assay: Secretion of antibodies

COc1cc(/C=N/O)nc(-c2ccccn2)c1 [Caerulomycin A, (E)-4-methoxy-2,2′-bipyridine-6-carbaldehyde oxime]
proliferation of mitogen stimulated cells at the effective doses ([1]; Caerulomycin A 0.05 and 0.1 μg/ml): potent inhibition | proliferation of ConA stimulated cells ([1]; ConA 1.0 and 2.0 μg/ml, Caerulomycin A 0.0003-0.1 μg/ml, 48 h): significant decrease | proliferation of cells stimulated with LPS ([1]; LPS 5 and 10 μg/ml, Caerulomycin A 0.0003-0.1 μg/ml, 48 h): suppress the proliferation | growth of cells from injected mice versus PBS-ethanol animals (antigen specific T cells; 25 μg/mice/day for 7 days, FIG. 2): significant level of retardation in the growth | proliferation of cells from antigen-primed animals injected with drug versus animals not administered drug (antigen specific T cells; FIG. 1): substantial inhibition | proliferation of cells from antigen-primed animals injected with drug versus animals not administered drug (antigen specific T cells; FIG. 1, listed as caerulomycin A): substantial inhibition in the proliferation | proliferation of cells from treated animals incubated in vitro with drug (antigen specific T cells; cells incubated with 0.10 μg/ml of caerulomycin A, FIG. 1): Nearly complete inhibition | optimum dosage required in vivo (antigen specific T cells; mouse, in vivo): 5.0 mg/kg/body wt | secretion of IgG1 type of antibodies (B cells): inhibited the secretion | secretion of IgG2a type of antibodies (B cells): inhibited the secretion
